Values of other authors in article PMC8435859 (Frontiers in Cellular and Infection Microbiology, 2021).
pEC50, pIC50, pKd: −log10 of the molar value.

Key:
hepatitis B virus (HBV) = test system: hepatitis B virus (HBV); set-up: method as in Abdelwahed A, et al. Chem Biol Interact. 2007; conditions: at a concentration of 4 microg/ml; library annotation; ref Abdelwahed A, et al. Chem Biol Interact. 2007; cited from earlier work
PGE2 production = test system: PGE2 production; set-up: method as in Kim HJ, et al. Arch Pharm Res. 2016 Feb;39(2):231-239.; conditions: ref Kim HJ, et al. Arch Pharm Res. 2016 Feb;39(2):231-239.; read-out: IC50, inhibitory effect on PGE2 production; cited from earlier work
B16F10 cell = test system: B16F10 cell; set-up: method as in ref Abe F, Nagao T, Okabe H. Biological & Pharmaceutical Bulletin, 2002, 25(7):920-922; conditions: ref Abe F, Nagao T, Okabe H. Biological & Pharmaceutical Bulletin, 2002, 25(7):920-922, read-out: GI50 against B16F10 cell; cited from earlier work
T. castaneum adults [1] = test system: T. castaneum adults; set-up: method as in Tao J, et al. Zhongguo Zhong Yao Za Zhi. 2011; conditions: vendor library annotation, ref Tao J, et al. Zhongguo Zhong Yao Za Zhi. 2011; cited from earlier work
lipase = target: lipase; set-up: method as in Tao J, et al. Zhongguo Zhong Yao Za Zhi. 2011; conditions: vendor library annotation, ref Tao J, et al. Zhongguo Zhong Yao Za Zhi. 2011, read-out: IC5 (lipase inhibitory activity); cited from earlier work
T. castaneum adults [2] = test system: T. castaneum adults; set-up: method as in Tao J, et al. Zhongguo Zhong Yao Za Zhi. 2011; conditions: 0.63 μg/cm, vendor library annotation, ref Tao J, et al. Zhongguo Zhong Yao Za Zhi. 2011; cited from earlier work
β-secretase (BACE1) = target: β-secretase (BACE1); set-up: method as in Murakami, A., et al. Carcinogenesis 21(10), 1843-1850 (2000); conditions: ref Murakami, A., et al. Carcinogenesis 21(10), 1843-1850 (2000); cited from earlier work
TRPA1 = test system: TRPA1; set-up: method as in López-Jiménez et al., European Journal of Nutrition, 2013; conditions: library annotation; ref López-Jiménez et al., European Journal of Nutrition, 2013; read-out: agonist of TRPA1, EC5 value; cited from earlier work
STAT1 = test system: STAT1; set-up: method as in Shin DS, et al. Cancer Res, 2009, 69(1), 193-202; conditions: ref Shin DS, et al. Cancer Res, 2009, 69(1), 193-202; cited from earlier work
STAT5 = test system: STAT5; set-up: method as in Shin DS, et al. Cancer Res, 2009, 69(1), 193-202; conditions: ref Shin DS, et al. Cancer Res, 2009, 69(1), 193-202; cited from earlier work
STAT3 = test system: STAT3; set-up: method as in Shin DS, et al. Cancer Res, 2009, 69(1), 193-202; conditions: cell-free assay; ref Shin DS, et al. Cancer Res, 2009, 69(1), 193-202; cited from earlier work
tyrosinase = target: tyrosinase; set-up: method as in Boissy RE, et al. Exp Dermatol, 2005, 14(8), 601-608; conditions: reversible inhibition; ref Boissy RE, et al. Exp Dermatol, 2005, 14(8), 601-608; cited from earlier work
PGE2 release = test system: PGE2 release; set-up: method as in ref Huang H et al., Journal of Agricultural and Food Chemistry, 2011; conditions: library annotation; ref Huang H et al., Journal of Agricultural and Food Chemistry, 2011; cited from earlier work
aldose reductase = conditions: recombinant human aldose reductase; library annotation; ref Huang H et al., Journal of Agricultural and Food Chemistry, 2011; read-out: inhibition of recombinant human aldose reductase, IC5 value; cited from earlier work
seed germination = test system: seed germination; set-up: method as in Kim T K, Park K S. Cytokine, 2015, 76(2); conditions: at 3 mM concentration; ref Kim T K, Park K S. Cytokine, 2015, 76(2); cited from earlier work
GSK-3β = conditions: read-out: IC50, GSK-3β; ref Hoessel R, et al. Nat Cell Biol, 1999, 1(1), 60-67; cited from earlier work
cyclin-dependent kinases = conditions: read-out: IC50, cyclin-dependent kinases; ref Hoessel R, et al. Nat Cell Biol, 1999, 1(1), 60-67; cited from earlier work
PTP1B = test system: PTP1B; set-up: method as in Xu F, Yang L, Huang X, et al. Mol Divers.; conditions: ref Xu F, Yang L, Huang X, et al. Mol Divers.; read-out: IC50, PTP1B inhibition; cited from earlier work
IL-1β = test system: IL-1β; set-up: method as in ref Singh B, et al. Natural Product Research, 2013, 27(23):2227-2230.; conditions: anti-inflammatory activity; ref Singh B, et al. Natural Product Research, 2013, 27(23):2227-2230.; read-out: IC50, inhibition of IL-1β; cited from earlier work
TNF-α = test system: TNF-α; set-up: method as in ref Singh B, et al. Natural Product Research, 2013, 27(23):2227-2230.; conditions: anti-inflammatory activity; ref Singh B, et al. Natural Product Research, 2013, 27(23):2227-2230.; read-out: IC50, inhibition of TNF-α; cited from earlier work
fatty acid synthase = test system: fatty acid synthase; set-up: method as in Tian, WX. Current Medicinal Chemistry, 2006, 13 (8): 967–977; conditions: ref Tian, WX. Current Medicinal Chemistry, 2006, 13 (8): 967–977; cited from earlier work
[3] = test system: nuclear factor of activated T cells (NFAT) transcription factor; set-up: method as in Phan, C., et al. Biofactors, 2016; conditions: vendor library annotation, ref Phan, C., et al. Biofactors, 2016; cited from earlier work
[4] = target: 6-phosphogluconate dehydrogenase; set-up: method as in Ma X, et al. Pest Manag Sci, 2010, 66(7), 718-724; conditions: ref Ma X, et al. Pest Manag Sci, 2010, 66(7), 718-724; cited from earlier work
[5] = target: 6-phosphogluconate dehydrogenase; set-up: method as in Ma X, et al. Pest Manag Sci, 2010, 66(7), 718-724; conditions: ref Ma X, et al. Pest Manag Sci, 2010, 66(7), 718-724; cited from earlier work; remark: listed apart in the source
BT474 cells = test system: BT474 cells; set-up: method as in Wu ZT, et al. Acta Pharmacol Sin. 2014 Sep;35(9):1188-98; conditions: ref Wu ZT, et al. Acta Pharmacol Sin. 2014 Sep;35(9):1188-98, read-out: IC50, cellular response via inhibition of mTORC1 and induction of ER stress; cited from earlier work
HeLa cells = test system: HeLa cells; set-up: method as in Wu ZT, et al. Acta Pharmacol Sin. 2014 Sep;35(9):1188-98; conditions: ref Wu ZT, et al. Acta Pharmacol Sin. 2014 Sep;35(9):1188-98, read-out: IC50, autophagy followed by apoptotic cell death; cited from earlier work
MDAMB231 = test system: MDAMB231; set-up: method as in Wu ZT, et al. Acta Pharmacol Sin. 2014 Sep;35(9):1188-98; conditions: ref Wu ZT, et al. Acta Pharmacol Sin. 2014 Sep;35(9):1188-98, read-out: IC50, cellular response via inhibition of mTORC1 and induction of ER stress; cited from earlier work
cytochrome P450 1A1 = test system: cytochrome P450 1A1; set-up: method as in Jo SP, Kim JK, Lim YH. Planta Med. 2014 Aug;80(13):1067-71; conditions: mechanism-based, selective inactivator; ref Jo SP, Kim JK, Lim YH. Planta Med. 2014 Aug;80(13):1067-71; read-out: IC50, cytochrome P450 1A1 inactivation; cited from earlier work
HL-60R = test system: HL-60R; set-up: method as in Jo SP, Kim JK, Lim YH. Planta Med. 2014 Aug;80(13):1067-71; conditions: HL-60R cancer cell line; ref Jo SP, Kim JK, Lim YH. Planta Med. 2014 Aug;80(13):1067-71; read-out: IC50, proliferation of HL-60R; cited from earlier work
HepG2 = test system: HepG2; set-up: method as in Jo SP, Kim JK, Lim YH. Planta Med. 2014 Aug;80(13):1067-71; conditions: HepG2 cancer cell line; ref Jo SP, Kim JK, Lim YH. Planta Med. 2014 Aug;80(13):1067-71; read-out: IC50, proliferation of HepG2; cited from earlier work

O=C(OC[C@H]1OC(OC(=O)c2cc(O)c(O)c(O)c2)[C@H](OC(=O)c2cc(O)c(O)c(O)c2)[C@@H](OC(=O)c2cc(O)c(O)c(O)c2)[C@@H]1OC(=O)c1cc(O)c(O)c(O)c1)c1cc(O)c(O)c(O)c1 (stereo partly drawn) [1,2,3,4,6-O-Pentagalloylglucose]
reduction of the HBsAg level (hepatitis B virus (HBV)): 25%

CC(C)=CCc1cc2ccc(=O)oc2cc1O [7-demethylsuberosin]
pIC50 (PGE2 production): 5.03

C[C@@H]1OC(O[C@@H]2[C@@H](O)[C@H](OCCc3ccc(O)c(O)c3)O[C@H](CO[C@@H]3OC[C@@H](O)[C@H](O)[C@H]3O)[C@H]2OC(=O)/C=C/c2ccc(O)c(O)c2)[C@H](O)[C@H](O)[C@H]1O (stereo partly drawn) [Arenarioside]
GI50 (B16F10 cell): 10 to 16 µM

C/C=C/C#CC#C/C=C/c1ccco1 [Atractylodin]
LD50 (T. castaneum adults [1]): 1.83 µg/cm
pIC50 (lipase): 4.41
repellency (T. castaneum adults [2]): > 90%

CC(C)=CCC/C(C)=C/COc1ccc2ccc(=O)oc2c1 [Auraptene]
pIC50 (β-secretase (BACE1)): 3.46

CC(C)c1cc2c(c(O)c1O)[C@@]13CCCC(C)(C)[C@@H]1C[C@@H]2OC3=O [Carnosol]
pEC50 (TRPA1): 4.90

C[C@H]1COC2=C1C(=O)C(=O)c1c2ccc2c1CCCC2(C)C [Cryptotanshinone]
inhibition of STAT1 (STAT1): no inhibition
inhibition of STAT5 (STAT5): no inhibition
pIC50 (STAT3): 5.34

Oc1ccc(OC2CCCCO2)cc1 (stereo not drawn) [Deoxyarbutin]
pIC50 (tyrosinase): 7.30

CC1OC(OC2C(=O)c3c(O)cc(O)cc3OC2c2ccc(O)cc2)C(O)C(O)C1O (stereo not drawn) [Engeletin]
inhibition of PGE2 release, IC5 (PGE2 release): 19.6 µg/mL
pIC50 (aldose reductase): 5.94

C[C@]1(OC(=O)/C=C/c2ccccc2)C[C@@H](O)[C@]2(O)C=CO[C@@H](O[C@@H]3O[C@H](CO)[C@@H](O)[C@H](O)[C@H]3O)[C@@H]21 [Harpagoside]
inhibition of seed germination (seed germination): 1. Harpagoside has anti-inflammatory activity. 2. Harpagoside at 3 mM concentration, shows moderate inhibition of seed germination. 3. Harpagoside can inhibit lipopolysaccharide-induced mRNA levels and protein expression of cyclooxygenase-2 and inducible nitric oxide in HepG2 cells.

O=C1Nc2ccccc2/C1=C1/Nc2ccccc2C1=O [Indirubin]
pIC50 (GSK-3β): ~6.22
pIC50 (cyclin-dependent kinases): ~5.30

C=C(C)[C@@H]1CC[C@]2(C)CC[C@]3(C)[C@H](CC[C@@H]4[C@@]5(C)CCC(=O)C(C)(C)[C@@H]5CC[C@]43C)[C@@H]12 [LUPENONE]
pIC50 (PTP1B): 4.82

COc1cc2oc(-c3ccccc3)cc(=O)c2c(O)c1OC [MOSLOFLAVONE]
pIC50 (IL-1β): 5.11
pIC50 (TNF-α): 6.15

O=c1c(O)c(-c2ccc(O)cc2O)oc2cc(O)cc(O)c12 [Morin]
pIC50 (fatty acid synthase): 5.63

COc1cc2oc(-c3ccccc3)cc(=O)c2c(O)c1O [Negletein]
pIC50 [3]: 5.41

COc1cc(O)c2c(c1)C(=O)c1cc(C)cc(O)c1C2=O [Rheochrysidin]
pKd [4]: 4.59
pIC50 [5]: 4.41

C[C@H]1CC[C@@]2(OC1)O[C@H]1C[C@H]3[C@@H]4CC[C@@H]5C[C@@H](O[C@@H]6O[C@H](CO)[C@H](O)[C@H](O)[C@H]6O[C@@H]6O[C@H](CO)[C@@H](O)[C@H](O)[C@H]6O)CC[C@]5(C)[C@H]4CC[C@]3(C)[C@H]1[C@@H]2C [Timosaponin AIII]
pIC50 (BT474 cells): 5.60
pIC50 (HeLa cells): 5.00
pIC50 (MDAMB231): 5.22

Rhapontigenin
pIC50 (cytochrome P450 1A1): 6.40
pIC50 (HL-60R): 4.32
pIC50 (HepG2): 4.32
